Several values for one entry are separate records, joined by “and”; a condition that tells them apart may be missing. Equal values may be shown once. Read-outs that look alike come from different tables or passages of the source.
Key:
[1] = by mouth, immediate-release formulation; cited from earlier work
[2] = topical; cited from earlier work
[3] = mice, cited from earlier work
[4] = cited from earlier work
[5] = cited from earlier work; remark: listed apart in the source
[6] = cited from earlier work; for excretion: as acid metabolites
[7] = of 750 courses of oral therapy; cited from earlier work
[8] = cited from earlier work; remark: listed apart in the source
[9] = monkeys, up to 9000 mg/kg THC; cited from earlier work
[10] = dogs, cited from earlier work
[11] = 20 mg of THC and 120 mg of codeine; cited from earlier work
[12] = doses of 15 and 20 mg; cited from earlier work
[13] = oral, dissolved in sesame oil, cited from earlier work
[14] = Acute oral toxicity of THC in rats (Thompson 1973); settings: 150 lb., female or male, respectively
[15] = cited from earlier work; for analgesic effect versus placebo: 5 mg of THC and 50 mg of codeine
[16] = 50 mg of THC daily, P<0.01; cited from earlier work
[17] = mice, oral administration; cited from earlier work
[18] = molecular target: μ-subtype opioid receptor (MOR) (Homo sapiens, UniProt P35372); settings: cited from earlier work
μ-subtype opioid receptor (MOR), sequence (P35372 whole entry): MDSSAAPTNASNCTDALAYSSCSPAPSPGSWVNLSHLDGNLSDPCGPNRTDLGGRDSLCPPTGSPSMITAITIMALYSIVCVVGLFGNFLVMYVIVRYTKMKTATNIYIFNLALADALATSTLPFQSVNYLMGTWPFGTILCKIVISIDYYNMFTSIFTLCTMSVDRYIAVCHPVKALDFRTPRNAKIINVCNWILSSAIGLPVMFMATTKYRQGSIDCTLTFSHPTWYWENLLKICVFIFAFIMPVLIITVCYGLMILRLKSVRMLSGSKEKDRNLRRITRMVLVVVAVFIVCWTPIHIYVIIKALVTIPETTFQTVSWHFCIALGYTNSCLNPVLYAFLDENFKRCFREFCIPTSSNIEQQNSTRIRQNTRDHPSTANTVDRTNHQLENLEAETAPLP

[19] = mice, subcutaneous; cited from earlier work
[20] = 2 mg/mL; cited from earlier work
[21] = cited from earlier work; remark: listed apart in the source
[22] = cited from earlier work; remark: listed apart in the source
[23] = man, cited from earlier work
[24] = cited from earlier work; remark: listed apart in the source
[25] = cited from earlier work; remark: listed apart in the source
[26] = cited from earlier work; remark: listed apart in the source
[27] = animal studies, compared with codeine; cited from earlier work
[28] = cited from earlier work; remark: listed apart in the source

COc1cccc(C2(O)CCCCC2CN(C)C)c1 (centres unmarked) [Tramadol]
onset of pain relief [1]: within an hour

CCCCCc1cc(O)c2c(c1)OC(C)(C)c1ccc(C)cc1-2 [CBN, cannabinol]
antagonism of TPA-induced erythema of skin [2]: least effective
inhibition of PBQ-induced writhing ([3]; doses higher than 10 mg/kg): 40%

CC(=O)Oc1cc(O[C@H](C)CCCc2ccccc2)cc2c1[C@@H]1C[C@H](O)CC[C@H]1[C@H](C)N2 [Levonantradol]
analgesia versus placebo ([4]; human small RCTs): superior to placebo
patients reporting sedation ([4]; in vivo): almost half the patients
analgesia versus placebo ([5]; 1.5, 2, 2.5, 3 mg intermuscular, all doses, at least P<0.05, no dose-response): significantly superior to placebo
patients reporting at least one side-effect ([5]; human, in vivo): 57%

CCCCCc1cc(O)cc(O)c1 [olivetol]
dose of maximal effect in the PBQ test [3]: about 100 micrograms/kg

CCCCCc1cc(O)c2c(c1)OC(C)(C)[C@@H]1CCC(C)=C[C@@H]21 [THC, (−)-(6aR,10aR)-6,6,9-trimethyl-3-pentyl-6a,7,8,10a-tetrahydro-6H-benzo[c]chromen-1-ol]
excretion ([6]; feces): 65-80%
bioavailability ([6]; healthy adults): 10-20%
biological half-life ([6]; in vivo): 1.6-59 h
metabolism ([6]; in vivo): mostly hepatic by CYP2C
bioavailability ([6]; inhalation): 10-35%
absolute bioavailability ([6]; oral administration, on an average): 13%
bioavailability ([6]; oral): 6-20%
biological half-life ([6]; orally administered dronabinol): 25-36 h
excretion ([6]; urine): 20-35%
poor or partial response [7]: approximately 65%
patients who experienced sedation ([8]; 10 mg/m2): one-third
patients with euphoria ([8]; 10 mg/m2): majority of patients
patients' self-reports of nausea and vomiting versus placebo ([8]; 22 cancer patients resistant to conventional anti-emetics, oral): statistically superior to placebo
death due to toxicity at maximum dose [9]: no cases of death
minimum lethal oral dose ([10]; oral): more than 3 g/kg
death due to toxicity at maximum dose ([10]; up to 3000 mg/kg THC): no cases of death
analgesia versus placebo ([4]; human small RCTs): significantly superior to placebo
time of peak analgesia ([4]; human small RCTs): around 5 hours
analgesic effectiveness, THC versus codeine [11]: equally effective
antagonism of TPA-induced erythema of skin [2]: least effective
dose at which maximally effective in the PBQ test ([3]; dose that induced catalepsy): 10 mg/kg
pain relief versus placebo [12]: significantly superior to placebo
LD50 ([13]; female rats): 730 mg/kg
LD50 ([13]; male rats): 1270 mg/kg
LD50 scaled up to an adult human [14]: 50 to 86 g
analgesic effect versus placebo [15]: analgesic effect in comparison with placebo
effect on spasticity ([15]; 5 mg of THC): significant effect on spasticity
morphine requirement during active treatment [16]: significantly reduced

CC[C@@H]1CN2CC[C@@]3(O)C(=Nc4cccc(OC)c43)[C@@H]2C[C@@H]1/C(=C\OC)C(=O)OC [7-hydroxymitragynine, (αE,2S,3S,7aS,12bS)-3-ethyl-1,2,3,4,6,7,7a,12b-octahydro-7a-hydroxy-8-methoxy-α-(methoxymethylene)-indolo[2,3-a]quinolizine-2-acetic acid methyl ester]
analgesic potency relative to morphine [17]: thirteen times more potent analgesic than morphine
activity at the μ-subtype opioid receptor (MOR) [18]: partial agonists
gastrointestinal transit [19]: inhibition of the gastrointestinal transit

C=C(C)[C@@H]1CCC(C)=C[C@H]1c1c(O)cc(CCCCC)cc1O [CBD, cannabidiol]
effectiveness at inhibition of PBQ-induced writhing among cannabinoids ([3]; oral, 100 micrograms/kg): most effective

COc1ccc2c3c1O[C@H]1[C@@H](O)C=C[C@H]4[C@@H](C2)N(C)CC[C@@]341 [codeine]
analgesic effectiveness, THC versus codeine [11]: equally effective
analgesic effect versus placebo [15]: analgesic effect in comparison with placebo

CC[C@@H]1CN2CCc3c([nH]c4cccc(OC)c34)[C@H]2C[C@@H]1/C(=C\OC)C(=O)OC (stereo in doubt) [mitragynine, (aE,2S,3S,12bS)-3-ethyl-1,2,3,4,6,7,12,12b-octahydro-8-methoxy-α-(methoxymethylene)-indolo[2,3-a]quinolizine-2-acetic acid methyl ester]
nerve conduction, compound nerve action potential [20]: blocked the nerve conduction, amplitude and duration of compound nerve action potential
lethality ([21]; rats, 200 mg/kg): lethal effects
toxicity ([21]; rodents, dose levels of 800-900 mg/kg): no toxicity
water solubility [22]: < 100 µg/mL
urine excretion of unchanged form ([23]; 24-hour period): 0.14%
apparent volume of distribution ([23]; oral Kratom tea, nine subjects): 38.04 ± 24.32 L/kg
terminal half-life ([23]; oral Kratom tea, nine subjects): 23.24 ± 16.07 h
time to reach the maximum plasma concentration ([23]; oral Kratom tea, nine subjects): 0.83 ± 0.35 h
total drug release in in vitro dissolution ([24]; simulated gastric fluid (SGF)): higher
drug release in in vitro dissolution ([24]; simulated intestinal fluid (SIF)): prolonged and incomplete
2-deoxy-D-glucose-stimulated gastric acid secretion ([25]; administration into fourth ventricle of anesthetized rats, reversed by naloxone): inhibition of 2-deoxy-D-glucose-stimulated gastric acid secretion in a dose dependent manner
basal gastric acid secretion ([25]; administration into the lateral ventricle): did not alter
pKa ([26]; conventional UV): 8.11±0.11
pKa ([26]; microplate reader determination): 8.08±0.04
antinociceptive and cough-suppressant effects [27]: comparable to those of codeine
activity at the μ-subtype opioid receptor (MOR) [18]: partial agonists
log P [28]: 1.73 and 1.70
